{"source": "patent US12215354B2", "about": "“Differentiation of human embryonic stem cells into single hormonal insulin positive cells” (Janssen Biotech, Inc., priority 2011, dated 2025)", "test_system": "human embryonic stem cell line H1", "assay": "Real-time PCR gene expression, ascorbic acid at stages 3-5 (Example 11)", "assay_type": "cell-based", "details": "at stages 4-5", "method": "Cells of the human embryonic stem cell line H1 at various passages (passage 40 to passage 52) were seeded as single cells at a density of 100,000 cells/cm^2 on MATRIGEL™ (1:30 dilution) coated dishes in mTesr™1 media and 10 μM of Y27632. Forty eight hours post seeding, cultures were differentiated into pancreatic endocrine lineage as follows: • a. Stage 1 (Definitive Endoderm (DE)−3 days): Prior to start of DE, the cultures were washed and incubated with incomplete PBS (no Mg or Ca) for 30 seconds followed by addition of the stage 1 media. Human embryonic stem cells cultured as single cells on MATRIGEL™-coated dishes were treated with MCDB-131 medium supplemented with 0.1% fatty acid-free BSA, 0.0012 g/ml sodium bicarbonate, 1× GLUTAMAX™, 5 mM D-Glucose, 100 ng/ml GDF8, and 1 μM MCX compound (GSK3B inhibitor) for one day. Cells were then treated with MCDB-131 medium supplemented with 0.1% fatty acid-free BSA, 0.0012 g/ml sodium bicarbonate, 1× GLUTAMAX™, 5 mM glucose, 100 ng/ml GDF8, and 100 nM MCX compound for day two, followed by an additional day in MCDB-131 medium supplemented with 0.1% fatty acid-free BSA, 0.0012 g/ml sodium bicarbonate, 1× GLUTAMAX™, 5 mM Glucose, and 100 ng/ml GDF8. • b. Stage 2 (Primitive gut tube−2 days): Stage 1 cells were treated with MCDB-131 medium supplemented with 0.1% fatty acid-free BSA, 0.0012 g/ml sodium bicarbonate, 1× GLUTAMAX™, 5 mM D-Glucose, and 25 ng/ml FGF7 for two days. • c. Stage 3 (Foregut−2 days): Stage 2 cells were treated with MCDB-131 medium supplemented with 1:200 dilution of ITS-X, 2.5 mM Glucose, 1× GLUTAMAX™, 0.0015 g/ml sodium bicarbonate, 2% fatty acid-free BSA, 10 ng/ml Activin A, 25 ng/ml FGF7, 0.25 μM SANT-1, 1 μM RA, 200 nM TPB (PKC activator), 100 nM LDN-193189 (BMP receptor inhibitor) for one day. Cells were then treated with MCDB-131 medium supplemented with 1:200 dilution of ITS-X, 2.5 mM Glucose, 1× GLUTAMAX™, 0.0015 g/ml sodium bicarbonate, 2% fatty acid-free BSA, 10 ng/ml Activin A, 25 ng/ml FGF7, 0.25 μM SANT-1, 1 μM RA, 200 nM TPB (PKC activator), 10 nM LDN-193189 for an additional day. […]", "key": {"[1]": {"details": "ascorbic acid added at stage 3 or at stages 3 and 4"}}, "data": [{"smiles": "O=C1O[C@H]([C@@H](O)CO)C(O)=C1O", "note": "[ascorbic acid]", "values": [{"measurement": "expression of pancreatic endoderm markers PDX-1 and NKX6.1", "setting": "0.25 mM ascorbic acid", "value": "not significantly altered"}, {"measurement": "expression of insulin", "setting": "[1]", "value": "increasing"}, {"measurement": "expression of somatostatin and glucagon", "setting": "[1]", "value": "significantly decreased"}]}]}
